Measured values reported in US7081449B2, “Pyrido[2,3-d]pyrimidine and pyrimido[4,5-d]pyrimidine nucleosides” (Valeant Research & Development, priority 2000, dated 2006).

Legend:
Type in all cases: cell-based
[1] = system: melanoma B16 and 140 cells, Leukemia cells (K562, M), and colon HT-29 cells; experiment: Anti-clonogenic activity in various cancer cells; conditions: FIG. 3; compared against Ecyd and Gemzar
Description: To determine the anti-clonogenic activity of contemplated compounds in various cancer cells experiments were conducted. […] Here again, 4-amino-5-oxo-8-(β-D-ribofuranosyl)pyrido[2,3-d]pyrimidine was used as a representative compound of contemplated compounds and compared against Ecyd and Gemzar.

[2] = system: CNS: SF-268, SF-295, SF-539, SNB-19, SNB-75, U251; experiment: Determination of EC50 in cancer cells, CNS; conditions: CNS tumor cell lines; incubated at least 24 hours
Description: (§1) Cancer cells were incubated with 4-amino-5-oxo-8-(β-D-ribofuranosyl)pyrido[2,3-d]pyrimidine at various concentrations for a period of at least 24 hours and EC50 was determined. Table 1 gives in vitro activity of 4-amino-5-oxo-8-(β-D-ribofuranosyl)pyrido[2,3-d]pyrimidine in nM concentrations.

RNA Polymerase I = RNA Polymerase I dependent RNA synthesis (28S and 18S rRNA processing); conditions: FIG. 6
Description: (§2) To further investigate the influence of contemplated compounds (here again represented by 4-amino-5-oxo-8-(β-D-ribofuranosyl)pyrido[2,3-d]pyrimidine) on RNA synthesis dependent on RNA Polymerase I, II, and III, experiments were conducted.

[3] = system: Prostate 81 (prostate cancer cells); experiment: Induction of apoptosis, histone-DNA ELISA; conditions: Prostate 81 cells, FIGS. 4A and 4B
Description: (§3) In order to determine how contemplated compounds interact with cancer cells, NB4 cells (Leukemia) and Prostate 81 (prostate cancer cells) cells were incubated with 4-amino-5-oxo-8-(β-D-ribofuranosyl)pyrido[2,3-d]pyrimidine, Ecyd, and Gemzar, and apoptosis was monitored by histone-DNA ELISA.

NB4 cells (Leukemia) = experiment: Induction of apoptosis, histone-DNA ELISA; conditions: FIGS. 4A and 4B
Description: as §3

Prostate: PC-3, DU-145 = experiment: Determination of EC50 in cancer cells, prostate; conditions: Homo sapiens, Prostate tumor cell lines, incubated at least 24 hours
Description: as §1

[4] = system: Leukemia: SR, RPMI 8226, MOLT-4, K-562, HL-60, CCRF-CEM; experiment: Determination of EC50 in cancer cells, leukemia; conditions: Leukemia cell lines; incubated at least 24 hours
Description: as §1

[5] = system: Ovarian: IGROV1, OVCAR-3, OVCAR-4, OVCAR-5, SK-OV-3; experiment: Determination of EC50 in cancer cells, ovarian; conditions: Ovarian tumor cell lines; incubated at least 24 hours
Description: as §1

Pancreas: PaCa-2, PANC-1 = experiment: Determination of EC50 in cancer cells, pancreas; conditions: Pancreas tumor cell lines; incubated at least 24 hours
Description: as §1

RNA Polymerase III = RNA Polymerase III dependent RNA synthesis; conditions: FIG. 6
Description: as §2

[6] = system: Melanoma: LOX IM VI, MALME-3M, M14, SK-MEL-2, SK-MEL-28, ACC-257, UACC-62; experiment: Determination of EC50 in cancer cells, melanoma; conditions: Melanoma cell lines; incubated at least 24 hours
Description: as §1

[7] = system: Kidney: 786-0, A498, ACHN, CAKI-1, RXF 393, UO-31; experiment: Determination of EC50 in cancer cells, kidney; conditions: Kidney tumor cell lines; incubated at least 24 hours
Description: as §1

[8] = system: Breast: MCF 7, NCI/ADR-RES, MDA-MB-435, BT-549, T-47D; experiment: Determination of EC50 in cancer cells, breast; conditions: Breast tumor cell lines; incubated at least 24 hours
Description: as §1

[9] = system: Liver: PLC/PRF5, Hep3B, Huh7; experiment: Determination of EC50 in cancer cells, liver; conditions: Liver tumor cell lines; incubated at least 24 hours
Description: as §1

RNA Polymerase II = RNA Polymerase II dependent RNA synthesis; conditions: FIG. 7
Description: as §2

MEK = experiment: MEK-ERK phosphorylation, autoradiograph, NB4 leukemic cells; conditions: FIG. 8
Description: (§4) To investigate the possibility of activation of the MEK-ERK signal transduction pathway by contemplated compounds an experiment was conducted. […] Consequently, it is contemplated that the compounds according to the inventive subject matter may induce apoptosis through activation of MEK (which can be abolished by inhibitors of the MEK-ERK pathway).

ERK = experiment: as above; conditions: FIG. 8
Description: as §4

Raf = experiment: as above; conditions: FIG. 8
Description: as §4

[10] = system: Colon: SW-620, KM 12, HT29, HCT-15, CHCT-116, HCC-2998, COLO-205; experiment: Determination of EC50 in cancer cells, colon; conditions: Colon tumor cell lines; incubated at least 24 hours
Description: as §1

[11] = system: Lung: NCI-H522, NCI-H460, NCI-H322M, NCI-H23, HOP-92, HOP-62, EKVX, A549; experiment: Determination of EC50 in cancer cells, lung; conditions: Lung tumor cell lines; incubated at least 24 hours
Description: as §1

K562 cells = experiment: Inhibition of RNA synthesis, H^3-Uridine incorporation; conditions: various time periods and concentrations, FIG. 5
From the text: RNA synthesis was monitored in K562 cells using H^3-Uridine incorporation following a general protocol as outlined below.

Nc1ncnc2c1c(=O)ccn2[C@@H]1O[C@H](CO)[C@@H](O)[C@H]1O [4-amino-5-oxo-8-(β-D-ribofuranosyl)pyrido[2,3-d]pyrimidine]
anti-clonogenic activity [1]: significant anti-clonogenic activity
EC50 [2]: 125 nM
inhibition of processing of 28S and 18S rRNA (RNA Polymerase I): may inhibit processing of 28S and 18S rRNA
induction of apoptosis [3]: induce apoptosis in a dose dependent manner
induction of apoptosis (NB4 cells (Leukemia)): induce apoptosis in a dose dependent manner
EC50 (Prostate: PC-3, DU-145): 19 nM
EC50 [4]: 34 nM
EC50 [5]: 21 nM
EC50 (Pancreas: PaCa-2, PANC-1): 188 nM
inhibition of RNA Polymerase III (RNA Polymerase III): fail to significantly inhibit RNA Polymerase III
EC50 [6]: 30 nM
EC50 [7]: 44 nM
EC50 [8]: 18 nM
EC50 [9]: 288 nM
inhibition of RNA-Polymerase II dependent RNA synthesis (RNA Polymerase II): inhibit RNA-Polymerase II dependent RNA synthesis in a concentration dependent manner
phosphorylation of MEK (MEK): enhance phosphorylation of MEK
phosphorylation of ERK (ERK): phosphorylation of MEK and ERK
phosphorylation of Raf (Raf): do not enhance phosphorylation of Raf
EC50 [10]: 16 nM
EC50 [11]: 68 nM
inhibition of RNA synthesis (K562 cells): inhibition of RNA synthesis
